Laboratory results from patent publication US9802927B2, “Oxadiazine compounds and methods of use thereof” (Denali Therapeutics, Inc., priority 2015, dated 2017).

Tested on: Aβ42
Test: In vitro cell screening assay in H4 cells expressing human APP751: Aβ42 by sandwich ELISA
Type: cell-based
Conditions: Homo sapiens, compounds 0.003-10 μM, incubated overnight (16-18 h), sandwich ELISA of supernatant
Outline: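 H4 neuroglioma cells stably expressing wild-type human APP751, switched to Pro293 medium and treated with compounds (0.003-10 μM, 0.33% DMSO) for 16-18 h at 37 °C. Supernatant Aβ42 quantified by sandwich ELISA (C-terminal capture, 4G8-HRP detection, A450); EC50 by sigmoidal fit normalized to DMSO and DAPT controls.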

Question: `COc1nc(C2=NOCC(c3cc4cccc(C)c4o3)N2)ccc1-n1cnc(Cl)c1` (single isomer, unassigned; (+)) [Example 24, (+)-3-(5-(4-Chloro-1H-imidazol-1-yl)-6-methoxypyridin-2-yl)-5-(7-methylbenzofuran-2-yl)-5,6-dihydro-4H-1,2,4-oxadiazine] was tested. Which EC50 did it give?
Answer: The EC50 was 13.7 nM.

Question: `COc1nc(C2=NOC[C@H](c3cc4ccccc4o3)N2C)ccc1-n1cnc(C)c1` [Example 32, (R)-5-(Benzofuran-2-yl)-3-(6-methoxy-5-(4-methyl-1H-imidazol-1-yl)pyridin-2-yl)-4-methyl-5,6-dihydro-4H-1,2,4-oxadiazine] was tested. Which EC50 did it give?
Answer: The EC50 was 390 nM.

Same assay, conditions: compounds 0.003-10 μM, incubated overnight (16-18 h), sandwich ELISA of supernatant

Question: `COc1nc(C2=NOCC(c3cn(C)c4cc(S(C)(=O)=O)ccc34)N2)ccc1-n1cnc(C)c1` (single isomer, unassigned; (+)) [Example 256B, (+)-3-(6-methoxy-5-(4-methyl-1H-imidazol-1-yl)pyridin-2-yl)-5-(1-methyl-6-(methylsulfonyl)-1H-indol-3-yl)-5,6-dihydro-4H-1,2,4-oxadiazine] was tested. Which EC50 did it give?
Answer: The EC50 was 422 nM.

Question: Which EC50 does the source give for `COc1nc(C2=NOCC(c3ccccc3)N2)ccc1-n1cnc(C)c1` (single isomer, unassigned) [Example 36A, 3-(6-methoxy-5-(4-methyl-1H-imidazol-1-yl)pyridin-2-yl)-5-phenyl-5,6-dihydro-4H-1,2,4-oxadiazine] here?
Answer: Its EC50 is 2740 nM.

Question: With `COc1nc(C2=NOCC(c3cc4cccc(C)c4o3)N2)ccc1-n1cnc(C)c1` (single isomer, unassigned) [Example 7B, 3-(6-Methoxy-5-(4-methyl-1H-imidazol-1-yl)pyridin-2-yl)-5-(7-methylbenzofuran-2-yl)-5,6-dihydro-4H-1,2,4-oxadiazine] as the compound, how does the EC50 read?
Answer: The EC50 was 23.3 nM.

Question: Which EC50 does the source give for `COc1nc(C2=NOCC(c3nc4ccccc4s3)N2)ccc1-n1cnc(C)c1` (single isomer, unassigned; (-)) [Example 208A, (−)-5-(benzo[d]thiazol-2-yl)-3-(6-methoxy-5-(4-methyl-1H-imidazol-1-yl)pyridin-2-yl)-5,6-dihydro-4H-1,2,4-oxadiazine] here?
Answer: The EC50 was over 3000 nM.

Question: How did the EC50 turn out when `COc1nc(C2=NOCC(c3ccc(F)cc3)N2)ccc1-n1cnc(C)c1` (single isomer, unassigned) [Example 40B, 5-(4-fluorophenyl)-3-(6-methoxy-5-(4-methyl-1H-imidazol-1-yl)pyridin-2-yl)-5,6-dihydro-4H-1,2,4-oxadiazine] was run?
Answer: The EC50 was 59.5 nM.

Question: `COc1nc(C2=NOCC(c3ccc(C4CC4)c(Cl)c3)N2)ccc1-n1cnc(C)c1` (single isomer, unassigned; (-)) [Example 243A, (−)-5-(3-chloro-4-cyclopropylphenyl)-3-(6-methoxy-5-(4-methyl-1H-imidazol-1-yl)pyridin-2-yl)-5,6-dihydro-4H-1,2,4-oxadiazine] was tested. Which EC50 did it give?
Answer: The EC50 was 250 nM.

Question: How did the EC50 turn out when `COc1nc(C2=NOCC(c3cc4ccc(C(F)(F)F)cc4o3)N2)ccc1-n1cnc(C)c1` (single isomer, unassigned; (-)) [Example 260A, (−)-3-(6-methoxy-5-(4-methyl-1H-imidazol-1-yl)pyridin-2-yl)-5-(6-(trifluoromethyl)benzofuran-2-yl)-5,6-dihydro-4H-1,2,4-oxadiazine] was run?
Answer: Its EC50 is 2320 nM.

Question: With `COc1nc(C2=NOCC(c3ccccc3C)N2)ccc1-n1cnc(C)c1` (single isomer, unassigned; (+)) [Example 131A, (+)-3-(6-methoxy-5-(4-methyl-1H-imidazol-1-yl)pyridin-2-yl)-5-(o-tolyl)-5,6-dihydro-4H-1,2,4-oxadiazine] as the compound, how does the EC50 read?
Answer: The EC50 was 102 nM.

Question: Which EC50 does the source give for `COc1nc(C2=NOCC(c3cn(C)c4cccc(F)c34)N2)ccc1-n1cnc(C)c1` (single isomer, unassigned; (+)) [Example 191A, (+)-5-(4-fluoro-1-methyl-1H-indol-3-yl)-3-(6-methoxy-5-(4-methyl-1H-imidazol-1-yl)pyridin-2-yl)-5,6-dihydro-4H-1,2,4-oxadiazine] here?
Answer: The EC50 was 6.9 nM.

Question: With `COc1cc(C2=NOCC(c3nc4cccc(C)c4o3)N2C)ccc1-n1cnc(C)c1` (single isomer, unassigned; (+)) [Example 212A, (+)-2-(3-(3-methoxy-4-(4-methyl-1H-imidazol-1-yl)phenyl)-4-methyl-5,6-dihydro-4H-1,2,4-oxadiazin-5-yl)-7-methylbenzo[d]oxazole] as the compound, how does the EC50 read?
Answer: The EC50 was 789 nM.

Question: For `COc1nc(C2=NOCC(c3ccc4ncccc4c3)N2)ccc1-n1cnc(C)c1` (single isomer, unassigned; (-)) [Example 224A, (−)-3-(6-methoxy-5-(4-methyl-1H-imidazol-1-yl)pyridin-2-yl)-5-(quinolin-6-yl)-5,6-dihydro-4H-1,2,4-oxadiazine], which EC50 is on record?
Answer: Its EC50 is over 3000 nM.

Question: `COc1nc(C2=NOCC(c3cn(C)c4cc(C#N)ccc34)N2)ccc1-n1cnc(C)c1` (single isomer, unassigned; (+)) [Example 249B, (+)-3-(3-(6-methoxy-5-(4-methyl-1H-imidazol-1-yl)pyridin-2-yl)-5,6-dihydro-4H-1,2,4-oxadiazin-5-yl)-1-methyl-1H-indole-6-carbonitrile] was tested. Which EC50 did it give?
Answer: The EC50 was 30.2 nM.

Question: Which EC50 does the source give for `COc1nc(C2=NOCC(c3cn(C)c4ccccc34)N2C)ccc1-n1cnc(C)c1` (single isomer, unassigned; (-)) [Example 200B, (−)-3-(6-methoxy-5-(4-methyl-1H-imidazol-1-yl)pyridin-2-yl)-4-methyl-5-(1-methyl-1H-indol-3-yl)-5,6-dihydro-4H-1,2,4-oxadiazine] here?
Answer: Its EC50 is 1290 nM.

Question: For `COc1nc(C2=NOCC(c3cc4cc(Cl)ccc4o3)N2)ccc1-n1cnc(C)c1` (single isomer, unassigned; (-)) [Example 57A, (−)-5-(5-chlorobenzofuran-2-yl)-3-(6-methoxy-5-(4-methyl-1H-imidazol-1-yl)pyridin-2-yl)-5,6-dihydro-4H-1,2,4-oxadiazine], which EC50 is on record?
Answer: Its EC50 is 2280 nM.

Question: How did the EC50 turn out when `COc1nc(C2=NOCC(c3cc4cccc(Cl)c4o3)N2)ccc1-n1cnc(C)c1` (single isomer, unassigned; (+)) [Example 64B, (+)-5-(7-chlorobenzofuran-2-yl)-3-(6-methoxy-5-(4-methyl-1H-imidazol-1-yl)pyridin-2-yl)-5,6-dihydro-4H-1,2,4-oxadiazine] was run?
Answer: The EC50 was 12.2 nM.

Question: For `COc1nc(C2=NOCC(c3cnn(C)c3)N2)ccc1-n1cnc(C)c1` (single isomer, unassigned; (+)) [Example 166B, (+)-3-(6-methoxy-5-(4-methyl-1H-imidazol-1-yl)pyridin-2-yl)-5-(1-methyl-1H-pyrazol-4-yl)-5,6-dihydro-4H-1,2,4-oxadiazine], which EC50 is on record?
Answer: The EC50 was over 3000 nM.

Question: Which EC50 does the source give for `COc1nc(C2=NOCC(c3cn(C4CC4)c4cc(F)ccc34)N2)ccc1-n1cnc(C)c1` (single isomer, unassigned; (-)) [Example 228A, (−)-5-(1-cyclopropyl-6-fluoro-1H-indol-3-yl)-3-(6-methoxy-5-(4-methyl-1H-imidazol-1-yl)pyridin-2-yl)-5,6-dihydro-4H-1,2,4-oxadiazine] here?
Answer: The EC50 was 262 nM.

Question: Which EC50 does the source give for `COc1nc(C2=NOCC(c3ccc4sc(C)nc4c3)N2)ccc1-n1cnc(C)c1` (single isomer, unassigned; (-)) [Example 215A, (−)-3-(6-methoxy-5-(4-methyl-1H-imidazol-1-yl)pyridin-2-yl)-5-(2-methylbenzo[d]thiazol-5-yl)-5,6-dihydro-4H-1,2,4-oxadiazine] here?
Answer: Its EC50 is 2210 nM.

Question: With `COc1nc(C2=NOCC(c3ccc(C(F)(F)F)c(Cl)c3)N2)ccc1-n1cnc(C)c1` (single isomer, unassigned; (-)) [Example 262A, (−)-5-(3-chloro-4-(trifluoromethyl)phenyl)-3-(6-methoxy-5-(4-methyl-1H-imidazol-1-yl)pyridin-2-yl)-5,6-dihydro-4H-1,2,4-oxadiazine] as the compound, how does the EC50 read?
Answer: The EC50 was over 3000 nM.
